In patent US20040121008A1, “Process for producing sustained release preparation” (priority 2001, published 2004):

Experiment: Increase in solubility of Compound A in dichloromethane/methanol by addition of metal compound
Type: physicochemical
Details: solvent dichloromethane/methanol=7/3
Description: Increase in solubility of poorly water-soluble nonpeptidic physiologically active compound by addition of metal compound
An amount of a solvent (dichloromethane/methanol=7/3) which can dissolve 0.1 g of 2-ethoxy-1-[[2′-(1H-tetrazol-5-yl)biphenyl-4-yl]methyl]benzimidazole-7-carboxylic acid (hereinafter, abbreviated as Compound A) is shown in Table 1.

- Amount of solvent which can dissolve 0.1 g of Compound A (magnesium acetate tetrahydrate 48.7 mg added): 0.5 mL
- Amount of solvent which can dissolve 0.1 g of Compound A (no metal compound added): 3 mL
- Amount of solvent which can dissolve 0.1 g of Compound A (zinc acetate dihydrate 49.8 mg added): 0.5 mL
SMILES: CCOc1nc2cccc(C(=O)O)c2n1Cc1ccc(-c2ccccc2-c2nnn[nH]2)cc1 [Compound A, 2-ethoxy-1-[[2′-(1H-tetrazol-5-yl)biphenyl-4-yl]methyl]benzimidazole-7-carboxylic acid]
